Test results as given in ChEMBL document CHEMBL3593240, “Structure-based development of nitroxoline derivatives as potential multifunctional anti-Alzheimer agents” (Bioorg Med Chem, 2015).
Activity calls are given as the source filed them. No cut-off for these calls is given here.

How the values were obtained:
[1] = Metal chelating activity of the compound assessed as Mg2+ complex formation at 30 uM after 10 mins by UV-vis spectrometry; assay type: physicochemical
[2] = Metal chelating activity of the compound assessed as Co2+ complex formation at 30 uM after 10 mins by UV-vis spectrometry; assay type: physicochemical
[3] = Solubility of the compound at 30 uM; assay type: physicochemical
[4] = biological target: Amyloid-beta precursor protein (Homo sapiens) (UniProt P05067); experiment: Inhibition of human recombinant amyloid beta (1 to 42) self aggregation at 10 uM after 12 hrs by dot-blot assay
[5] = Antioxidant activity assessed as DPPH radical scavenging activity; assay type: physicochemical
Cholinesterase [6] = biological target: T1, Cholinesterase (Homo sapiens, UniProt P06276); experiment: Inhibition of human recombinant BChE using butyrylthiocholine iodide as substrate assessed as residual activity at 30 uM after 5 mins by Ellman's method relative to control
[7] = Metal chelating activity of the compound assessed as Cu2+ complex formation at 30 uM after 10 mins by UV-vis spectrometry; assay type: physicochemical
[8] = Metal chelating activity of the compound assessed as Fe2+ complex formation at 30 uM after 10 mins by UV-vis spectrometry; assay type: physicochemical
[9] = Metal chelating activity of the compound assessed as Ca2+ complex formation at 30 uM after 10 mins by UV-vis spectrometry; assay type: physicochemical
[10] = Metal chelating activity of the compound assessed as Zn2+ complex formation at 30 uM after 10 mins by UV-vis spectrometry; assay type: physicochemical
[11] = biological target: T2, Acetylcholinesterase (Mus musculus) (UniProt P21836); experiment: Inhibition of […] iodide as substrate assessed as residual activity at 30 uM after 5 mins by Ellman's method relative to control
T2 sequence (whole entry): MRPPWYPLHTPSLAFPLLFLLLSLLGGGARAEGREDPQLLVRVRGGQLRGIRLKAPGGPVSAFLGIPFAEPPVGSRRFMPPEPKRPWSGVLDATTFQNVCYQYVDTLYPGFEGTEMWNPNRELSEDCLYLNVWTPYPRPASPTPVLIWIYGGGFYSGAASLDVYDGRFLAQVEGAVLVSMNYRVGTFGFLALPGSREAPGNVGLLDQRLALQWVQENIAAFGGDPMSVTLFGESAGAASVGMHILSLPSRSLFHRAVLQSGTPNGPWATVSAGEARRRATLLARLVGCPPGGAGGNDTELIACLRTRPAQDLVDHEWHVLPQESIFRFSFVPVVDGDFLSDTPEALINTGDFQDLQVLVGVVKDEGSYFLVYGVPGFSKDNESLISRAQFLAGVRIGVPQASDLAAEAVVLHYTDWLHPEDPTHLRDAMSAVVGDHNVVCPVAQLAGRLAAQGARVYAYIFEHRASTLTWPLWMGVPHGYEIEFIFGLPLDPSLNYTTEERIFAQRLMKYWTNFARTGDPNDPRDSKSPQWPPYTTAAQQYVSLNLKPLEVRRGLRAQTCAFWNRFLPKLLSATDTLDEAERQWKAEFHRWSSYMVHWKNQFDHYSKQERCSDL

Cholinesterase [12] = biological target: T1, Cholinesterase
Description: Inhibition of human recombinant BChE using butyrylthiocholine iodide as substrate after 5 mins by Ellman's method

[13] = Binding affinity to Cu2+ using CuCl2 at 30 uM by isothermal titration calorimetry analysis
[14] = Binding affinity to Cu2+ using CuCl2 at 30 uM after 45 mins

Sequence of Amyloid-beta precursor protein (Homo sapiens) (P05067 whole entry): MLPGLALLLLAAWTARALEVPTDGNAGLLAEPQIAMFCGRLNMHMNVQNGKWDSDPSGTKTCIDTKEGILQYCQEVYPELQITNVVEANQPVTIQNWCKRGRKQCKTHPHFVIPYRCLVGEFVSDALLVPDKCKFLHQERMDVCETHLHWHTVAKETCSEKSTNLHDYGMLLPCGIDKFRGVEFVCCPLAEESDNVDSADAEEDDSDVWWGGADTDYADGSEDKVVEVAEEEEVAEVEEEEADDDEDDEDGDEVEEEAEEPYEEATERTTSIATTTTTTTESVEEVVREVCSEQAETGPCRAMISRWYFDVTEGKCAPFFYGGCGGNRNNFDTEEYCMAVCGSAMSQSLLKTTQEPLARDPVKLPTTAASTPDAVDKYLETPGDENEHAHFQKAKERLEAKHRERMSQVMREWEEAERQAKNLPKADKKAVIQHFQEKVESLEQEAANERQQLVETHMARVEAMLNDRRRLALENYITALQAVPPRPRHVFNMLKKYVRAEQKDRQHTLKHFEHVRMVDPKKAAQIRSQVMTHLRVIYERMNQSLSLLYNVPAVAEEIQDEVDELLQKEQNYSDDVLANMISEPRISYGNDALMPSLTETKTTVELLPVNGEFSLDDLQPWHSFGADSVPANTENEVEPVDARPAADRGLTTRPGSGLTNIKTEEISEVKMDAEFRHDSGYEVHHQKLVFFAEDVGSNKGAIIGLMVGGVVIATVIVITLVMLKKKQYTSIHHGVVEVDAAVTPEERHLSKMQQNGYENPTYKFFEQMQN
T1 sequence (P06276 whole entry): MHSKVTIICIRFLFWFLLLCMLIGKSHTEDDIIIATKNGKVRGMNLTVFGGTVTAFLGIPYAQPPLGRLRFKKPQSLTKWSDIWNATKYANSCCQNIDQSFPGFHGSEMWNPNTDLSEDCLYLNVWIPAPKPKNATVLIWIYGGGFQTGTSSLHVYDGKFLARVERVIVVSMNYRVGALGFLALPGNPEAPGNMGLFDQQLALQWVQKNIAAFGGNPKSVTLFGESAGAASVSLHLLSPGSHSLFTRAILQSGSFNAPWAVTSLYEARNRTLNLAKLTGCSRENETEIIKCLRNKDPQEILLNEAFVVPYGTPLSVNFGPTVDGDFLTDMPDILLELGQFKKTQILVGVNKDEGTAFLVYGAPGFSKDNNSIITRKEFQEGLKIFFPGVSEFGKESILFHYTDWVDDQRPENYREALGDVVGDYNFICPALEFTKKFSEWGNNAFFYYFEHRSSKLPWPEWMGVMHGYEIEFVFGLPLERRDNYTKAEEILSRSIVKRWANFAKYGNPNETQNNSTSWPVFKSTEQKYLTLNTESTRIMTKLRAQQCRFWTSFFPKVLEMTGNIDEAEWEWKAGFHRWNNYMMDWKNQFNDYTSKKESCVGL

SMILES | Activity [1] | Activity [2] | solubility [3] | inhibition [4] | EC50 [5] | Ratio (Cholinesterase [6]) | Activity [7] | Activity [8] | Activity [9] | Activity [10] | inhibition [11] | inhibition (Cholinesterase [6]) | IC50 (Cholinesterase [12]) | Kd [13] | Activity [14] | Ratio [11]
COCCN(CC1CCN(Cc2nc3ccccc3o2)CC1)C(=O)c1cc([N+](=O)[O-])c2cccnc2c1O | Not Active | Active | soluble | 34.9% | 770 µM | 0.805 | Active | Active | Not Active | Active | inactive | – | – | – | – | –
O=C(NCC1CCCN(Cc2nc3ccccc3s2)C1)c1cc([N+](=O)[O-])c2cccnc2c1O (stereo not drawn) | – | Active | soluble | 53.4% | 1330 µM | 0.444 | Active | Active | – | Active | inactive | – | – | – | – | –
O=C(NCC1CCCN(c2nc3ccccc3s2)C1)c1cc([N+](=O)[O-])c2cccnc2c1O (stereo not drawn) | – | Active | soluble | 33.3% | 3830 µM | – | Active | Active | – | Active | inactive | inactive | – | – | – | –
COCCN(CC1CCCN(C2Cc3ccccc3C2)C1)C(=O)c1cc([N+](=O)[O-])c2cccnc2c1O (stereo not drawn) | Not Active | Active | soluble | 20.1% | 3450 µM | 0.014 | Active | Active | Not Active | Active | inactive | – | 0.215 µM | 0.25 µM | Active | –
COCCN(CC1CCCN(C2Cc3ccccc3C2)C1)C(=O)c1ccc2ccccc2c1 (stereo not drawn) | – | – | – | – | – | – | – | – | – | – | inactive | – | – | – | – | –
COCCN(CC1CCN(Cc2nc3ccccc3s2)CC1)C(=O)c1cc([N+](=O)[O-])c2cccnc2c1O | – | Active | soluble | 44.2% | 4140 µM | 0.129 | Active | Active | – | Active | inactive | – | 2.14 µM | – | – | –
O=C(NCC1CCCN(c2nc3ccccc3o2)C1)c1cc([N+](=O)[O-])c2cccnc2c1O (stereo not drawn) | – | Active | soluble | 35.5% | 881 µM | 0.914 | Active | Active | – | Active | inactive | – | – | – | – | –
O=c1c(O)c(-c2ccc(O)c(O)c2)oc2cc(O)cc(O)c12 [QUERCETIN] | – | – | – | – | 10.9 µM | – | – | – | – | – | – | – | – | – | – | –
O=C(NCC1CCCN(C2Cc3ccccc3C2)C1)c1cc([N+](=O)[O-])c2cccnc2c1O (stereo not drawn) | – | Active | soluble | 28.7% | 524 µM | 0.747 | Active | Active | – | Active | – | – | – | – | – | 0.641
